The record followed here is publication PMC5711933, “Intracellular biomass flocculation as a key mechanism of rapid bacterial killing by cationic, amphipathic antimicrobial peptides and peptoids” (Scientific Reports, 2017).

Non-standard residues stand in square brackets, D forms with d. Residues, ends and D or L forms follow the SMILES beside them. Nspe = C[C@H](NCC(=O)O)c1ccccc1; Nlys = NCCCCNCC(=O)O

In one data set the test system is Erythrocytes. The data set can be described thus: Hemolysis assay. The class given is cell-based. As to conditions: human erythrocytes in PBS pH 7.4, 1 h at 37 °C, A350; three independent replicates (two for LL-37 and fowlicidin-1). The method, then:
The plate was then centrifuged at 1200 g for 15 min, 100 μL of the supernatant from each well transferred to a fresh microtiter plate, and A350 measured.

The subject of another data set is EGFP-Luc plasmid. Put plainly: DNA retardation assay (gel electrophoresis). The data set is classed as binding. As to conditions: EGFP-Luc plasmid in TBS, complexes 20 min at room temperature, 1–2% agarose gel.
Data set [1] is described as follows: RP-HPLC elution (% ACN) as measure of hydrophobicity. The class given is physicochemical. As to conditions: chromatographic hydrophobicity; gradient of 5–95% acetonitrile (ACN) over 45 minutes, C18 column, 0.2 mL/min; average of three replicates.
Data set [2] concerns E. coli ATCC 35218. The data set can be described thus: Bacterial count by plating after 1-hour treatment, before SEM sample preparation. The data set is classed as cell-based. The note with it: 1 hour in PBS, control 5 × 10^5 CFU/mL. How it is done: E. coli was treated with 10 μM peptide or peptoid for 1 hour in phosphate-buffered saline (PBS). […] We used 10 μM peptide/peptoid for all samples since it is near the MICs of the majority of the oligomers.
Before fixation, aliquots of each samples were serially diluted and plated on agar to determine the concentration of live bacteria remaining after the 1-hour treatment. […] (1) SEM samples were treated in PBS (as discussed above), whereas MIC assays are performed in cation-adjusted Mueller-Hinton broth. AMPs and ampetoids are known to interact with ions in the media (for example, when switching from plain Mueller-Hinton broth to cation-adjusted Mueller-Hinton broth)[1], so differences in activity may be due to changes in media composition. (2) the treatments were for one hour only, whereas MICs are determined after 16 hours of growth. […] (3) Some of these compounds may cause inhibition of growth without causing bacterial cell death (i.e., they are bacteriostatic—which is what the MIC indicates—rather than bactericidal—which is determined by plating and counting colonies). […]
Overnight cultures of E. coli ATCC 35218 were centrifuged for 10 min and 2500 × g at room temperature, then resuspended in PBS. […] Bacterial concentrations of the diluted suspensions were calculated from their OD590 values using optical density curves derived from pre-determined concentrations. […]

Data set [3] relates to E. coli ATCC 35218. The data set is classed as cell-based. As to conditions: CAMHB, 35 °C, 16 h, final 5 × 10^5 CFU/mL; reproducible between three independent replicates.
Protocol: MICs were determined according to CLSI M7-A6 protocols in a 96-well microtiter plate. In test wells, 50 μL bacterial inoculum (1 × 10^6 CFU/ml) in cation-adjusted Mueller-Hinton broth (CAMHB) was added to 50 μL peptoid solution in CAMHB (prepared by 1:2 serial dilutions). Positive controls contained 50 μL inoculum and 50 μL CAMHB without peptoid. […] MIC values reported were reproducible between three independent experimental replicates, each consisting of two parallel trials.
For data set [4], the system named is Bioluminescent P. aeruginosa. The data set is classed as cell-based, Pseudomonas aeruginosa. As to conditions: 12.5 µM, LB, 37 °C, 10 min; average of three independent experiments with two replicates each.
Protocol: The decrease in bioluminescence at 37 °C was measured for a range of concentrations from 0 – 100 μM (Supp. Figs. S6 and S7).
Bioluminescent P. aeruginosa [73] was grown at 37 °C in Luria-Bertani (LB) broth. […] In a 96-well plate, 50 µL of P. aeruginosa solution (1 × 10^6 CFU/mL) was added to 50 µL of antimicrobial solution, and the bioluminescence was measured using an IVIS imaging system (a Xenogen product from Caliper Life Sciences, Hopkinton, MA) at 10 min intervals for 2 h. The reported values are the average of three independent experiments with two replicates each.
For data set [5], the system named is E. coli ATCC 35218. The data set can be described thus: Bacterial count by plating after treatment, before TEM sample preparation. The class given is cell-based.
Protocol: E. coli ATCC 35218, grown overnight at 35 °C in Mueller-Hinton broth (MHB), were resuspended in 1X (150 mM) PBS, pH 7.4, and diluted to a concentration of 1 × 10^8 CFU/mL. Aqueous peptide/peptoid stock solutions were added to 1 mL aliquots of the suspension to the desired final concentration. After 1 hour, small volumes of each sample were serially diluted, plated, and incubated overnight at 35 °C, to be counted the following day. The remaining volume of each sample was centrifuged, and the pellet resuspended and enrobed in 5–10 µL of 2% low-melting agarose (gelling temperature 25° ± 5 °C) then drawn up into the tip of a Pasteur pipette. The solidified rods were extruded into fixative (2% glutaraldehyde, 2% paraformaldehyde, 50 mM PBS, pH 7.4). […] 50 nm thin sections of embedded samples were cut using a diamond knife, stained for 5 min in 5% aqueous uranyl acetate, then rinsed in H2O. Sections were examined in a JEOL 1230 TEM. Experimental conditions were each repeated in at least two independent trials. For each replicate of each sample, bacteria across the thin section were first surveyed to determine morphological characteristics representative of that sample, then images were captured of at least five bacteria displaying those morphologies with an emphasis on clean (i.e., orthogonal) transverse and/or longitudinal sections. Each image shown is thus representative of the ultrastructural characteristics observed in bacteria throughout a given sample and between replicates.

Protocol for EGFP-Luc plasmid: DNA retardation was analyzed by gel electrophoresis. Peptoid/peptide-DNA complexes were formed by adding 10 µL of peptide/peptoid solution of varying concentrations to 10 µL DNA solution (EGFP-Luc plasmid in Tris-buffered saline (TBS) buffer), and the resulting solution was mixed by gentle aspiration. Complexes were incubated for 20 min at room temperature. After complex formation, 20 µL of each sample were loaded onto a 1–2% agarose gel in Tris/borate/EDTA (TBE) buffer, which ran at 120 V for 15 min. DNA bands on the gel were visualized under UV light by ethidium bromide staining.

`C[C@@H](c1ccccc1)N(CC(N)=O)C(=O)CN(C(=O)CN(CCCCN)C(=O)CN(C(=O)CN(C(=O)CN(CCCCN)C(=O)CN(C(=O)CN(C(=O)CN(CCCCN)C(=O)CN(C(=O)CN(C(=O)CNCCCCN)[C@@H](C)c1ccccc1)[C@@H](C)c1ccccc1)[C@@H](C)c1ccccc1)[C@@H](C)c1ccccc1)[C@@H](C)c1ccccc1)[C@@H](C)c1ccccc1)[C@@H](C)c1ccccc1` [compound 1] (H-[Nlys][Nspe][Nspe][Nlys][Nspe][Nspe][Nlys][Nspe][Nspe][Nlys][Nspe][Nspe]-NH2): in the data set with Erythrocytes, the “HD10 (hemolytic dose; concentration for 10% hemolysis)” value turned out to be 14 µM and the “HD50 (hemolytic dose; concentration for 50% hemolysis)” value is on record as 62 µM. In addition, the “Retardation assay: mass of compound required to completely retard migration of 1 µg of DNA” value in the data set on EGFP-Luc plasmid was found to be 3.0 µg. The “% ACN at RP-HPLC elution” value in data set [1] amounted to 64.2%. Further, the “SEM: Bacterial count after 10 µM treatment (% of control)” value with E. coli ATCC 35218 [2] is listed as 40 % of control. The “E. coli ATCC 35218 MIC” value in the data set with E. coli ATCC 35218 [3] is 6.3 µM. In data set [4], the “Decrease in bioluminescence within 10 min” value was ~ 99.9%. The “TEM: Bacterial count after 10 µM treatment (% of control)” value in the data set on E. coli ATCC 35218 [5] (10 µM, 1 hour in PBS pH 7.4, control 1 × 10^8 CFU/mL) is on record as 0.2 % of control. In the data set with E. coli ATCC 35218 [5] (100 µM, 5 minutes), the “Bacteria remaining after 5-min treatment” value is 1 × 10^4 CFU/mL and the “Bacteria remaining after 5-min treatment (% of bacteria in the control)” value is given as 0.01%. In addition, in the data set with E. coli ATCC 35218 [5] (100 µM, 1 hour in PBS pH 7.4, control 1 × 10^8 CFU/mL), the “TEM: Bacterial count after 100 µM treatment (% of control)” value is 0 (0) % of control. In the data set with E. coli ATCC 35218 [5] (100 µM, 15, 30 and 60 minutes), the “Bacterial killing after 15-min, 30-min, and 60-min treatments” value was “all bacteria were killed”.
